Test results taken from patent US20120214811A1, “RAF INHIBITOR COMPOUNDS AND METHODS OF USE THEREOF” (priority 2009, published 2012).

What was measured:
V600E full-length B-Raf = target: T1, V600E full-length B-Raf (Homo sapiens, UniProt P15056, V600E); assay: B-Raf IC50 assay (incorporation of radio labeled phosphate from [γ-33P]ATP into FSBA-modified wild-type MEK); assay type: biochemical; conditions: Example A assay; 4 μM ATP, 20 nM V600E full-length B-Raf, 60-minute incubation at 22° C.; read-out: BRAF V600E IC50
T1 construct: 1 μM FSBA-MEK and 20 nM V600E full-length B-Raf; made in house; host or cells: Sf9 insect cells (baculovirus)
T1 sequence (P15056 whole entry V600E): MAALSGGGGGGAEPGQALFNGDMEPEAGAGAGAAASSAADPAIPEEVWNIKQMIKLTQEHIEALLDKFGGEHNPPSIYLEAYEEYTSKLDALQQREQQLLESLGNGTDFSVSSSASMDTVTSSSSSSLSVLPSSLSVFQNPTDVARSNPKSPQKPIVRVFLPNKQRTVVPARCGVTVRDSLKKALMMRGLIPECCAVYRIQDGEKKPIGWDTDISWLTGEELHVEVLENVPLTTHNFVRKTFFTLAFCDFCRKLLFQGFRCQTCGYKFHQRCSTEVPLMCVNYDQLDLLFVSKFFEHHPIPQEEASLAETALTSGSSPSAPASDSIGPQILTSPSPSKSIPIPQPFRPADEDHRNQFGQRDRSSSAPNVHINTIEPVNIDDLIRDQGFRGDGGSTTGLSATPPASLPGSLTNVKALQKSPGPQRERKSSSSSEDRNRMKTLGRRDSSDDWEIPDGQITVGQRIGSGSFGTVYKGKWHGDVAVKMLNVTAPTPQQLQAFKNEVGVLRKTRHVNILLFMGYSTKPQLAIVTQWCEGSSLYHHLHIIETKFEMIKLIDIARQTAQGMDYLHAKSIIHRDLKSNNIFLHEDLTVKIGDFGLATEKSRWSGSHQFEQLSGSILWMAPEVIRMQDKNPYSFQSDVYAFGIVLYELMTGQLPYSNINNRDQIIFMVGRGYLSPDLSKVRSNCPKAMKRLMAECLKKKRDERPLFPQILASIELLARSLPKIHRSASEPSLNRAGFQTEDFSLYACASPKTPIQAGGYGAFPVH
Text: Determining the activity of Raf in the sample is possible by a number of direct and indirect detection methods (US 2004/0082014). Activity of human recombinant B-Raf protein may be assessed in vitro by assay of the incorporation of radio labeled phosphate to recombinant MAP kinase (MEK), a known physiologic substrate of B-Raf, according to US 2004/0127496 and WO 03/022840. The activity/inhibition of V600E full-length B-Raf was estimated by measuring the incorporation of radio labeled phosphate from [γ-^33]ATP into FSBA-modified wild-type MEK (see Example A).
Activity of human recombinant B-Raf protein may be assessed in vitro by assay of the incorporation of radio labeled phosphate to recombinant MAP kinase (MEK), a known physiologic substrate of B-Raf, according to US 2004/0127496 and WO 03/022840. Catalytically active human recombinant B-Raf protein is obtained by purification from sf9 insect cells infected with a human B-Raf recombinant baculovirus expression vector.
The activity/inhibition of V600E full-length B-Raf was estimated by measuring the incorporation of radio labeled phosphate from [γ-^33P]ATP into FSBA-modified wild-type MEK. The 30-μL assay mixtures contained 25 mM Na Pipes, pH 7.2, 100 mM KCl, 10 mM MgCl2, 5 mM β-glycerophosphate, 100 μM Na Vanadate, 4 μM ATP, 500 nCi [γ-^33P]ATP, 1 μM FSBA-MEK and 20 nM V600E full-length B-Raf. Incubations were carried out at 22° C. in a Costar 3365 plate (Corning). Prior to the assay, the B-Raf and FSBA-MEK were preincubated together in assay buffer at 1.5× (20 μL of 30 nM and 1.5 μM, respectively) for 15 minutes, and the assay was initiated by the addition of 10 μL of 10 μM ATP. Following the 60-minute incubation, the assay mixtures were quenched by the addition of 100 μL of 25% TCA, the plate was mixed on a rotary shaker for 1 minute, and the product was captured on a Perkin-Elmer GF/B filter plate using a Tomtec Mach III Harvester. After sealing the bottom of the plate, 35 μL of Bio-Safe II (Research Products International) scintillation cocktail were added to each well and the plate was top-sealed and counted in a Topcount NXT (Packard).

[1] = system: basal ERK1/2 phosphorylation; assay: Cellular ERK 1/2 phosphorylation assay in Malme-3M cells; assay type: cell-based; conditions: Homo sapiens, 1 hour incubation, pERK signal normalized to total ERK, read-out: IC50, inhibition of basal ERK1/2 phosphorylation
Method: Inhibition of basal ERK1/2 phosphorylation was determined by the following in vitro […], which comprises incubating cells with a compound of Formula II for 1 hour and quantifying the fluorescent pERK signal on fixed cells and normalizing to total ERK signal.
Materials and Methods: Malme-3M cells were obtained from ATCC and grown in RPMI-1640 supplemented with 10% fetal bovine serum. Cells were plated in 96-well plates at 24,000 cells/well and allowed to attach for 16-20 hours at 37° C., 5% CO2. The media was removed, and DMSO-diluted compounds were added in RPMI-1640 at a final concentration of 1% DMSO. The cells were incubated with the compounds for 1 hour at 37° C., 5% CO2. The cells were washed with PBS and fixed in 3.7% formaldehyde in PBS for 15 minutes. This was followed by washing in PBS/0.05% Tween20 and permeabilizing in −20° C. 100% MeOH for 15 minutes. Cells were washed in PBS/0.05% Tween20 then blocked in Odyssey blocking buffer (LI-COR Biosciences) for 1 hour. Antibodies to phosphorylated ERK (1:400, Cell Signaling #9106, monoclonal) and total ERK (1:400, Santa Cruz Biotechnology #sc-94, polyclonal) were added to the cells and incubated 16-20 hours at 4° C. […] Cells were then washed and analyzed for fluorescence at both wavelengths using the Odyssey Infrared Imaging System (LI-COR Biosciences). […]

| SMILES | IC50 (V600E full-length B-Raf) | IC50 [1] |
| --- | --- | --- |
| CCCS(=O)(=O)Nc1ccc(Cl)c(NC(=O)Nc2cc(NC)ncn2)c1F [Example 9, N-4-Chloro-2-fluoro-3-(3-((6-(methylamino)pyrimidin-4-yl)ureido)phenyl)propane-1-sulfonamide] | 8.9 nM |  |
| CCCS(=O)(=O)Nc1ccc(F)c(NC(=O)N(C)c2cc(Nc3ccn(C)n3)ncn2)c1F [Example 12, Propane-1-sulfonic acid (2,4-difluoro-3-{3-methyl-3-[6-(1-methyl-1H-pyrazol-3-ylamino)-pyrimidin-4-yl]-ureido}-phenyl)-amide] | 59.1 nM |  |
| CCCS(=O)(=O)Nc1ccc(F)c(NC(=O)N(C)c2cc(NC3CC3)ncn2)c1F [Example 13, N-(3-(3-(6-(cyclopropylamino)pyrimidin-4-yl)-3-methylureido)-2,4-difluorophenyl)propane-1-sulfonamide] | 21.8 nM |  |
| CCCS(=O)(=O)Nc1ccc(F)c(NC(=O)Nc2cc(NC)ncn2)c1Cl [Example 8, Propane-1-sulfonic acid {2-chloro-4-fluoro-3-[3-(6-methylamino-pyrimidin-4-yl)-ureido]-phenyl}-amide] | 19.8 nM | ~153 nM |
| CCCS(=O)(=O)Nc1ccc(F)c(NC(=O)N(C)c2cc(NCC)ncn2)c1F [Example 14, N-(3-(3-(6-(ethylamino)pyrimidin-4-yl)-3-methylureido)-2,4-difluorophenyl)propane-1-sulfonamide] | 25.6 nM |  |
| CCCS(=O)(=O)Nc1ccc(F)c(NC(=O)Nc2cc(NC)ncn2)c1F [Example 3, N-(2,4-difluoro-3-(3-(6-(methylamino)pyrimidin-4-yl)ureido)phenyl)propane-1-sulfonamide] | 31.2 nM |  |
| CCCS(=O)(=O)Nc1ccc(F)c(NC(=O)N(C)c2cc(NCCO)ncn2)c1F [Example 16, N-(2,4-difluoro-3-(3-(6-(2-hydroxyethylamino)pyrimidin-4-yl)-3-methylureido)phenyl) propane-1-sulfonamide] | 121 nM |  |
| CCCS(=O)(=O)Nc1ccc(F)c(NC(=O)Nc2ccncn2)c1F [Example 7, Propane-1-sulfonic acid [2,4-difluoro-3-(3-pyrimidin-4-yl-ureido)-phenyl]-amide] | 1390 nM |  |
| CCCS(=O)(=O)Nc1ccc(F)c(NC(=O)Nc2cc(NC(C)C)ncn2)c1F [Example 4, N-(2,4-difluoro-3-(3-(6-(isopropylamino)pyrimidin-4-yl)ureido)phenyl)propane-1-sulfonamide] | 165 nM |  |
| CCCS(=O)(=O)Nc1ccc(F)c(NC(=O)Nc2cc(NCCO)ncn2)c1F [Example 5, N-(2,4-difluoro-3-(3-(6-(2-hydroxyethylamino)pyrimidin-4-yl)ureido)phenyl)propane-1-sulfonamide] | 63.5 nM |  |
| CCCS(=O)(=O)Nc1ccc(F)c(NC(=O)Nc2cc(N)ncn2)c1F [Example 2, N-(3-(3-(6-aminopyrimidin-4-yl)ureido)-2,4-difluorophenyl)propane-1-sulfonamide] | 142 nM | ~438 nM |
| CCCS(=O)(=O)Nc1ccc(Cl)c(NC(=O)Nc2cc(NCc3ccccc3)ncn2)c1F [Example 10, N-(3-(3-(6-(Benzylamino)pyrimidin-4-yl)ureido)-4-chloro-2-fluorophenyl)propane-1-sulfonamide] | 19.2 nM |  |
| CCCS(=O)(=O)Nc1ccc(F)c(NC(=O)Nc2cc(NCC)ncn2)c1F [Example 1, Propane-1-sulfonic acid {3-[3-(6-ethylamino-pyrimidin-4-yl)-ureido]-2,4-difluoro-phenyl}-amide] | 28 nM |  |
| CCCS(=O)(=O)Nc1ccc(F)c(NC(=O)Nc2cc(NCCN3CCOCC3)ncn2)c1F [Example 6, N-(2,4-difluoro-3-(3-(6-(2-morpholinoethylamino)pyrimidin-4-yl)ureido)phenyl)propane-1-sulfonamide] | 535 nM |  |
| CCCS(=O)(=O)Nc1ccc(F)c(NC(=O)N(C)c2cc(NC)ncn2)c1F [Example 17, N-(2,4-difluoro-3-(3-methyl-3-(6-(methylamino)pyrimidin-4-yl)ureido)phenyl)propane-1-sulfonamide] | 84.6 nM |  |
| CCCS(=O)(=O)Nc1ccc(F)c(NC(=O)N(C)c2cc(N)ncn2)c1F [Example 15, N-(3-(3-(6-aminopyrimidin-4-yl)-3-methylureido)-2,4-difluorophenyl)propane-1-sulfonamide] | 83.3 nM |  |
| CCCS(=O)(=O)Nc1ccc(F)c(NC(=O)N(C)c2ccncn2)c1F [Example 11, Propane-1-sulfonic acid [2,4-difluoro-3-(3-methyl-3-pyrimidin-4-yl-ureido)-phenyl]-amide] | 1230 nM |  |

Continued, in another order:

| IC50 (V600E full-length B-Raf) | SMILES | IC50 [1] |
| --- | --- | --- |
| 283 nM | CCCS(=O)(=O)Nc1ccc(F)c(NC(=O)N(C)c2cc(NC3CCOC3)ncn2)c1F (stereo not shown) [Example 19, N-(2,4-difluoro-3-(3-methyl-3-(6-(tetrahydrofuran-3-ylamino)pyrimidin-4-yl)ureido)phenyl)propane-1-sulfonamide] |  |
| 13.4 nM | CCCS(=O)(=O)Nc1ccc(F)c(NC(=O)Nc2ncnc(Nc3ccc(F)cc3)n2)c1F [Example 23, N-(2,4-Difluoro-3-(3-(4-(4-fluorophenylamino)-1,3,5-triazin-2-yl)ureido)phenyl)propane-1-sulfonamide] |  |
| 288 nM | CCCS(=O)(=O)Nc1ccc(F)c(NC(=O)Nc2ncncc2-c2ccc(Cl)cc2)c1F [Example 25] |  |
| 122 nM | CCCS(=O)(=O)Nc1ccc(F)c(NC(=O)Nc2ncncn2)c1F [Example 24, N-(3-(3-1,3,5-Triazin-2-ylureido)-2,4-difluorophenyl)propane-1-sulfonamide] |  |
| 33.4 nM | CCCS(=O)(=O)Nc1ccc(F)c(NC(=O)N(C)c2cc(NN)ncn2)c1F [Example 20, N-(2,4-difluoro-3-(3-(6-hydrazinylpyrimidin-4-yl)-3-methylureido)phenyl) propane-1-sulfonamide] |  |
| 235 nM | CCCS(=O)(=O)Nc1ccc(F)c(NC(=O)Nc2ncnc(NC)n2)c1F [Example 26, N-(2,4-Difluoro-3-(3-(4-(methylamino)-1,3,5-triazin-2-yl)ureido)phenyl)propane-1-sulfonamide] |  |
| 616 nM | CCCS(=O)(=O)Nc1ccc(F)c(NC(=O)N(C)c2cc(NCCN3CCOCC3)ncn2)c1F [Example 22, N-(2,4-difluoro-3-(3-methyl-3-(6-(2 morpholinoethylamino)pyrimidin-4-yl)ureido)phenyl)propane-1-sulfonamide] |  |
| 83.6 nM | CCCS(=O)(=O)Nc1ccc(F)c(NC(=O)N(C)c2cc(NC3CCC3)ncn2)c1F [Example 18, N-(3-(3-(6-(cyclobutylamino)pyrimidin-4-yl)-3-methylureido)-2,4-difluorophenyl)propane-1-sulfonamide] |  |
| 132 nM | CCCS(=O)(=O)Nc1ccc(F)c(NC(=O)N(C)c2cc(NC(C)C)ncn2)c1F [Example 21, N-(2,4-difluoro-3-(3-(6-(isopropylamino)pyrimidin-4-yl)-3-methylureido)phenyl) propane-1-sulfonamide] |  |
